Test results taken from ChEMBL document CHEMBL3351699, “Diarylthiazole: an antimycobacterial scaffold potentially targeting PrrB-PrrA two-component system” (J Med Chem, 2014).
≈ marks a conversion by molar mass, not a printed value. Calls of active or inactive are those of the source. The rule behind the calls is not given here.

Columns and labels:
Format in all cases: functional
[1] = test system: Mycobacterium tuberculosis; assay: Antimicrobial activity against clinical isolate Isoniazid-resistant Mycobacterium tuberculosis assessed as growth inhibition after 7 days by turbidometry; details: 168 h
[2] = test system: Mycobacterium tuberculosis; assay: Antimicrobial activity against clinical isolate Rifampin-resistant Mycobacterium tuberculosis assessed as growth inhibition after 7 days by turbidometry; details: 168 h
[3] = test system: Mycobacterium tuberculosis; assay: Antimicrobial activity against second mutant generation Mycobacterium tuberculosis 1024_18 assessed as fold shift in MIC relative to parent strain
[4] = test system: Mycobacterium tuberculosis; assay: Antimicrobial activity against second mutant generation Mycobacterium tuberculosis 1024_8.12 assessed as fold shift in MIC relative to parent strain
[5] = test system: Mycobacterium tuberculosis; assay: Antimicrobial activity against second mutant generation Mycobacterium tuberculosis 1024_16.5 assessed as fold shift in MIC relative to parent strain
[6] = test system: Mycobacterium tuberculosis; assay: Antimicrobial activity against second mutant generation Mycobacterium tuberculosis 1024_16.6 assessed as fold shift in MIC relative to parent strain
[7] = test system: Mycobacterium tuberculosis; assay: Antimicrobial activity against first mutant generation Mycobacterium tuberculosis 1024_1 assessed as fold shift in MIC relative to parent strain
[8] = test system: Mycobacterium tuberculosis; assay: Antimicrobial activity against first mutant generation Mycobacterium tuberculosis 1024_18 assessed as fold shift in MIC relative to parent strain
[9] = test system: Mycobacterium tuberculosis; assay: Antimicrobial activity against Mycobacterium tuberculosis H37Rv over-expressing InhA cells assessed as upshift of MIC relative to wild type

| SMILES | MIC80 [1] [µg/mL] | MIC80 [2] [µg/mL] | Ratio [3] | Ratio [4] | Ratio [5] | Ratio [6] | Ratio [7] | Ratio [8] | Activity [9] | fold change (FC) [9] |
| --- | --- | --- | --- | --- | --- | --- | --- | --- | --- | --- |
| CCCc1cc(-c2nc(-c3cccc(OC)c3)cs2)ccn1 | 1 (≈ 3.22 µM) | 0.5 (≈ 1.61 µM) | – | – | – | – | – | – | – | – |
| CCCc1cc(-c2nc(-c3ccc(NS(C)(=O)=O)cc3)cs2)ccn1 | 0.5 (≈ 1.34 µM) | 0.13 (≈ 0.348 µM) | – | – | – | – | – | – | – | – |
| CCCc1cc(-c2nc(-c3ccc(OCC4CC4)cc3)cs2)ccn1 | 1 (≈ 2.85 µM) | 0.13 (≈ 0.371 µM) | – | – | – | – | – | – | – | – |
| CCCc1cc(-c2nc(-c3ccc(OCCN4CCOCC4)cc3)cs2)ccn1 | 1 (≈ 2.44 µM) | 0.5 (≈ 1.22 µM) | 8 | 8 | 4 | >8 | – | – | – | – |
| CCCc1cc(-c2nc(-c3ccncc3)cs2)ccn1 | – | – | 8 | 8 | 16 | 16 | 16 | 8 | Active | – |
| CCCc1cc(-c2nc(-c3ccccn3)cs2)ccn1 | – | – | – | – | – | – | – | – | Active | – |
| CCCc1cc(-c2csc(-c3ccnc(CCC)c3)n2)ccn1 | – | – | – | – | – | – | – | – | Active | – |
| CCCc1cc(-c2nc(-c3ccnc(OCC)c3)cs2)ccn1 | – | – | – | – | – | – | – | – | Active | – |
| COc1nc2ccc(Br)cc2cc1[C@@H](c1ccccc1)[C@@](O)(CCN(C)C)c1cccc2ccccc12 [BEDAQUILINE] | – | – | 0.25 | 0.25 | 0.5 | 0.5 | 1 | 0.5 | – | – |
| CCc1cc(C(N)=S)ccn1 [ETHIONAMIDE] | – | – | – | – | – | – | – | – | – | 8 |
| CCCc1cc(-c2nc(-c3ccc(C)cc3)cs2)ccn1 [FATOSTATIN] | – | – | 16 | 16 | 16 | >32 | 8 | 16 | Active | – |
| NNC(=O)c1ccncc1 [ISONIAZID] | > 16 | 0.03 (≈ 0.219 µM) | 1 | 1 | 1 | 1 | 1 | 1 | – | 8 |
| CC(=O)NC[C@H]1CN(c2ccc(N3CCOCC3)c(F)c2)C(=O)O1 [LINEZOLID] | – | – | – | – | – | – | 1 | 1 | – | – |
| COc1c(N2C[C@@H]3CCCN[C@@H]3C2)c(F)cc2c(=O)c(C(=O)O)cn(C3CC3)c12 [MOXIFLOXACIN] | – | – | 0.5 | 1 | 1 | 1 | 1 | 1 | – | – |
| CO[C@H]1/C=C/O[C@@]2(C)Oc3c(C)c(O)c4c(O)c(c(/C=N/N5CCN(C)CC5)c(O)c4c3C2=O)NC(=O)/C(C)=C\C=C\[C@H](C)[C@H](O)[C@@H](C)[C@@H](O)[C@@H](C)[C@H](OC(C)=O)[C@@H]1C [RIFAMPIN] | 0.003 (≈ 0.00365 µM) | > 16 | – | – | – | – | 0.5 | 0.5 | – | – |
| Oc1cc(Cl)ccc1Oc1ccc(Cl)cc1Cl [TRICLOSAN] | – | – | – | – | – | – | – | – | – | 8 |
